What was measured:
Test in all cases: biochemical
Design in all cases: KINOMEscan active-site competition binding panel (468 kinase assays), per cent of control at 1000 nM
Settings in all cases: KINOMEscan per cent of control (binding competition); read-out: Percent Control
FLT3 = FLT3 (Homo sapiens, UniProt P36888)
Description: (§1) Figure S7 / Percent Control

EPHA1 = EPHA1 (Homo sapiens, UniProt P21709)
Description: as §1

CAMK1G = CAMK1G (Homo sapiens, UniProt Q96NX5)
Description: as §1

PRKD3 = PRKD3 (Homo sapiens, UniProt O94806)
Description: as §1

PIK3CA(Q546K) = PIK3CA(Q546K) (Homo sapiens, UniProt P42336, Q546K)
Description: as §1

DAPK3 = DAPK3 (Homo sapiens, UniProt O43293)
Chain of DAPK3 (O43293 whole entry): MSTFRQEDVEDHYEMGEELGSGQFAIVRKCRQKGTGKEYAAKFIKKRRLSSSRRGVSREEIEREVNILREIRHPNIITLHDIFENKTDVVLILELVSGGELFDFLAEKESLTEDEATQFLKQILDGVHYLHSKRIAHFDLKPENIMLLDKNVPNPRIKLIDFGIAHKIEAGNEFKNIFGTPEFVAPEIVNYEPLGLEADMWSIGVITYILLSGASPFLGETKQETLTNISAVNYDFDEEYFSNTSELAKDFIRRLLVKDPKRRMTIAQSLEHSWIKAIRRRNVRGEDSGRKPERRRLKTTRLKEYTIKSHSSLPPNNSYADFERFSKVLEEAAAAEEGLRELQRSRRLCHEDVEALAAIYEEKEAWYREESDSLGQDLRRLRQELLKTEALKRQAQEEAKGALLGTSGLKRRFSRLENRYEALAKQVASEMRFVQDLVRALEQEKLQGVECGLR
Description: as §1

PDGFRA = PDGFRA (Homo sapiens, UniProt P16234)
Chain of PDGFRA (P16234 whole entry): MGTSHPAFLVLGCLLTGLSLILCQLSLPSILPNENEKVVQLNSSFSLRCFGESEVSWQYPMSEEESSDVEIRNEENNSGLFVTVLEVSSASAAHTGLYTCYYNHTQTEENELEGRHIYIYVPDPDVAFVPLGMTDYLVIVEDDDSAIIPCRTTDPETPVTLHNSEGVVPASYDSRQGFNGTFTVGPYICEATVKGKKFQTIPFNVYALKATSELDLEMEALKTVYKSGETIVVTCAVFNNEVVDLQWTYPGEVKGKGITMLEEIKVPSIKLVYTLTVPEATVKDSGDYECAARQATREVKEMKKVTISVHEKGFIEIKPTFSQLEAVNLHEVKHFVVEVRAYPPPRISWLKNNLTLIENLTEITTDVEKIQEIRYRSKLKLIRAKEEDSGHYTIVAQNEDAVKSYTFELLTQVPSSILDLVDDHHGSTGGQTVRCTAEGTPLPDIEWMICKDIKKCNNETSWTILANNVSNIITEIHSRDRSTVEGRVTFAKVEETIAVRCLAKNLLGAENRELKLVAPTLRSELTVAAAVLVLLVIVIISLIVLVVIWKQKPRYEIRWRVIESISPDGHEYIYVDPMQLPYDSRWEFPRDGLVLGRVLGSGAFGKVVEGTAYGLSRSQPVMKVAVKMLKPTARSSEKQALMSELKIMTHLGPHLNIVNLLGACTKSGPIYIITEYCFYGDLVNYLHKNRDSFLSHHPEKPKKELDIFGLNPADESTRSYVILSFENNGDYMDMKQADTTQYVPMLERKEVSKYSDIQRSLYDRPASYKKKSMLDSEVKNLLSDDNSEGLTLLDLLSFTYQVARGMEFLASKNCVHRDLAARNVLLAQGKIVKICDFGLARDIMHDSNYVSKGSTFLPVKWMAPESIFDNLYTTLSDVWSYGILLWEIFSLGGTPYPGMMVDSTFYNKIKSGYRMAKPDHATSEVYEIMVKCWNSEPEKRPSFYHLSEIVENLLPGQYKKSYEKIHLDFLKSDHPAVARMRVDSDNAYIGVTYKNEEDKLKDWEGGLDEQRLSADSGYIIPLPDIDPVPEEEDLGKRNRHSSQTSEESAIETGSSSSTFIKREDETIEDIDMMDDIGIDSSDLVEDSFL
Description: as §1

IKK-epsilon = biological target: T1, IKK-epsilon (Homo sapiens, UniProt Q14164)
T1 construct: gene IKBKE
Description: as §1

[1] = biological target: T2, RSK4(Kin.Dom.2-C-terminal) (Homo sapiens, UniProt Q9UK32)
T2 construct: gene RPS6KA6; Kin.Dom.2-C-terminal
Description: as §1

BRAF = BRAF (Homo sapiens, UniProt P15056)
Chain of BRAF (P15056 whole entry): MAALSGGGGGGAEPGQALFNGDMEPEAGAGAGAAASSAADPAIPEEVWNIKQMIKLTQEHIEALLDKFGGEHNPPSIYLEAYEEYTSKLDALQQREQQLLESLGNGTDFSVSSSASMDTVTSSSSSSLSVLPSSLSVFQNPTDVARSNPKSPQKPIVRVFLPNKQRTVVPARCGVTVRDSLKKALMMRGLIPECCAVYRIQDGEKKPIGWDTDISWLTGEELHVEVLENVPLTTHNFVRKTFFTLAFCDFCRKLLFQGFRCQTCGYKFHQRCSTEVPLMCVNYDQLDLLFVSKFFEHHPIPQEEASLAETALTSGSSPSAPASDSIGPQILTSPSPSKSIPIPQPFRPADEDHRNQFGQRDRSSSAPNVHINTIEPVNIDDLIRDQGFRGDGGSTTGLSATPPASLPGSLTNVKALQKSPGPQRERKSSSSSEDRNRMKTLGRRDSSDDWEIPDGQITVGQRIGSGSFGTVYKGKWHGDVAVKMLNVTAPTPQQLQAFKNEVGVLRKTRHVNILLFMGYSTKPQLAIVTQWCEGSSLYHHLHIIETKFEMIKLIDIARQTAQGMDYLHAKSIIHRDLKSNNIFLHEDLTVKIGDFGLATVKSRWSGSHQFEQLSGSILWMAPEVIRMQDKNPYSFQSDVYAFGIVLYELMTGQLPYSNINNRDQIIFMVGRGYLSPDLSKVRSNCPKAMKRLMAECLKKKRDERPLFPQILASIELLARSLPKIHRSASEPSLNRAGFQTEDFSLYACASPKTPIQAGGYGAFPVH
Description: as §1

S6K1 = biological target: T3, S6K1 (Homo sapiens, UniProt P23443)
T3 construct: gene RPS6KB1
T3 sequence (P23443 whole entry): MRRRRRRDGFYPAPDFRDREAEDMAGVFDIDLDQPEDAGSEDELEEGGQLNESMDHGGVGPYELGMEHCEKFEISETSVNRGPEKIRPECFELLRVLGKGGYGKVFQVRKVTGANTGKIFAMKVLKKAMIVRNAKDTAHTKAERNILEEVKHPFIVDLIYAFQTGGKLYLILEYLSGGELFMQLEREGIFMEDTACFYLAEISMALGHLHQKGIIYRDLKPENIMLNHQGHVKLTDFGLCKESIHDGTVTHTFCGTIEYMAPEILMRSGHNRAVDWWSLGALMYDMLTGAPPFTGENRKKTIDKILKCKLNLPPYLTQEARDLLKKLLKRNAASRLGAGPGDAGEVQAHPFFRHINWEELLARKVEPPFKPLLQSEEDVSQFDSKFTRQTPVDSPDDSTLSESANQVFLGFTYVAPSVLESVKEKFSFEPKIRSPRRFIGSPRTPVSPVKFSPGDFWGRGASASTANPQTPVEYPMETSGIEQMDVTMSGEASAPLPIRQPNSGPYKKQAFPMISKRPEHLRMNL
Description: as §1

CSNK1A1L = CSNK1A1L (Homo sapiens, UniProt Q8N752)
Description: as §1

CSNK2A2 = CSNK2A2 (Homo sapiens, UniProt P19784)
Chain of CSNK2A2 (P19784 whole entry): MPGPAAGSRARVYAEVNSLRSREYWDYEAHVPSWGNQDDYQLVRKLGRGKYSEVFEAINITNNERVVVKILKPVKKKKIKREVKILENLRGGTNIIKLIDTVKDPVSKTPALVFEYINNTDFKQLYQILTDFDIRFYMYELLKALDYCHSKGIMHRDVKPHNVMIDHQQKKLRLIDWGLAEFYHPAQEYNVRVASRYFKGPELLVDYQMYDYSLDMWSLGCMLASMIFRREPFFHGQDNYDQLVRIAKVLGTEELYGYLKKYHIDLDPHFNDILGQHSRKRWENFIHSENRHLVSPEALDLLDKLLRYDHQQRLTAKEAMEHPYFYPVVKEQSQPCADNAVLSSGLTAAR
Description: as §1

DAPK2 = DAPK2 (Homo sapiens, UniProt Q9UIK4)
Description: as §1

[2] = biological target: T4, RSK2(Kin.Dom.1-N-terminal) (Homo sapiens, UniProt P51812)
T4 construct: gene RPS6KA3; Kin.Dom.1-N-terminal
Description: as §1

NEK10 = NEK10 (Homo sapiens, UniProt Q6ZWH5)
Description: as §1

GRK2 = GRK2 (Homo sapiens, UniProt P25098)
Chain of GRK2 (P25098 whole entry): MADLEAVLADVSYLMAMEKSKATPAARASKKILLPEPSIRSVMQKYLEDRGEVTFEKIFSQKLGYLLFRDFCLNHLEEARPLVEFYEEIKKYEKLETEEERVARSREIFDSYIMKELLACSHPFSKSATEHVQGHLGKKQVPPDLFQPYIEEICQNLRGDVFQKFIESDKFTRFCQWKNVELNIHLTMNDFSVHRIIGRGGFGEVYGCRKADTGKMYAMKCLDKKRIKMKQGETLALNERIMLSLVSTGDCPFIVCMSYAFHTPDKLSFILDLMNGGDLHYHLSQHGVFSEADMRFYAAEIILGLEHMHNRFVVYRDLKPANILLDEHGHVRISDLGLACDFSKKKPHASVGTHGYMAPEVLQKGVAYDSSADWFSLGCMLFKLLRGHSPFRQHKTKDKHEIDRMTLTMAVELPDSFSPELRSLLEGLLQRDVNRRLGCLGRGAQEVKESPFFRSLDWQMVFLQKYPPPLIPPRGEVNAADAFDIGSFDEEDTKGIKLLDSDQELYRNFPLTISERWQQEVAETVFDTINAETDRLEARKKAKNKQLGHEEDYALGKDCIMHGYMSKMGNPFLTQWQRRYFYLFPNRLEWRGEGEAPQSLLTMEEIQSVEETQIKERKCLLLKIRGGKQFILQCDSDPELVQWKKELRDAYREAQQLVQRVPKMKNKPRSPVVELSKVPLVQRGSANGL
Description: as §1

SRPK2 = SRPK2 (Homo sapiens, UniProt P78362)
Description: as §1

PCTK3 = biological target: T5, PCTK3 (Homo sapiens, UniProt Q07002)
T5 construct: gene CDK18
Description: as §1

SNRK = SNRK (Homo sapiens, UniProt Q9NRH2)
Description: as §1

ACVR1 = ACVR1 (Homo sapiens, UniProt Q04771)
Description: as §1

KIT(D816V) = KIT(D816V) (Homo sapiens, UniProt P10721, D816V)
Description: as §1

EPHA4 = EPHA4 (Homo sapiens, UniProt P54764)
Description: as §1

INSRR = INSRR (Homo sapiens, UniProt P14616)
Description: as §1

Chain of FLT3 (P36888 whole entry): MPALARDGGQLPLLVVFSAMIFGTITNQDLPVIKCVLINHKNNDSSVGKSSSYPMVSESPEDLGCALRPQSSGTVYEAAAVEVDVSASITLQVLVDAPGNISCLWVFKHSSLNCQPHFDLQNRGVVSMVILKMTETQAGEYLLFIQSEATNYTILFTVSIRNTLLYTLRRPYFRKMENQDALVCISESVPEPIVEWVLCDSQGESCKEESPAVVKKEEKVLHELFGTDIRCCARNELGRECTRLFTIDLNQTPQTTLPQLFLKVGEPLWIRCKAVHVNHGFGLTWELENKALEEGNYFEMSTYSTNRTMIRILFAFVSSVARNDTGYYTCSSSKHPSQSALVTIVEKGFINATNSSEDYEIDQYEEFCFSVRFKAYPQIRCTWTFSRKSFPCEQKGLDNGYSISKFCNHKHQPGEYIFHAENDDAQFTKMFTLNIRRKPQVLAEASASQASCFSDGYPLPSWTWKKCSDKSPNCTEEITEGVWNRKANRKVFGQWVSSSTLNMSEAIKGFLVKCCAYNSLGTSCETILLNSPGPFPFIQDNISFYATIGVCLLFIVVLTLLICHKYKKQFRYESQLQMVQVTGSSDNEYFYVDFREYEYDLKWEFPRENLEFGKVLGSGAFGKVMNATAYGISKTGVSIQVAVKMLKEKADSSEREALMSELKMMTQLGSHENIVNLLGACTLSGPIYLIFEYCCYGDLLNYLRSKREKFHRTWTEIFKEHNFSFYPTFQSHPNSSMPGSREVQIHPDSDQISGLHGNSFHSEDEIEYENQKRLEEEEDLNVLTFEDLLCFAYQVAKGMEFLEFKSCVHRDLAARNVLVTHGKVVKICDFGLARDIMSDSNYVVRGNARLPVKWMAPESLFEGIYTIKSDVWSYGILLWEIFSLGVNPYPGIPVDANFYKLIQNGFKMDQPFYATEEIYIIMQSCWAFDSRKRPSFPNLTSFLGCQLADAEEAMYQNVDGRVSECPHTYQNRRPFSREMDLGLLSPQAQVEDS

Which remaining binding at 1 µM (FLT3) does the source give for `Cn1c(=O)[nH]c2ccc(-c3cccc(C(=O)NC4CCn5ccnc5C4)c3)cc21` (stereo not drawn) [Z36-MP5] here?
Its remaining binding at 1 µM is 95%.

And the remaining binding at 1 µM (EPHA1)?
Its remaining binding at 1 µM is 96%.

And the remaining binding at 1 µM (CAMK1G)?
Its remaining binding at 1 µM is 99%.

And the remaining binding at 1 µM (PRKD3)?
Its remaining binding at 1 µM is 91%.

And the remaining binding at 1 µM (PIK3CA(Q546K))?
Its remaining binding at 1 µM is 54%.

What about the remaining binding at 1 µM (DAPK3) of the same compound?
The remaining binding at 1 µM was 89%.

What about the remaining binding at 1 µM (PDGFRA) of the same compound?
Its remaining binding at 1 µM is 75%.

What about the remaining binding at 1 µM (IKK-epsilon) of the same compound?
Its remaining binding at 1 µM is 84%.

And the remaining binding at 1 µM [1]?
Its remaining binding at 1 µM is 82%.

What about the remaining binding at 1 µM (BRAF) of the same compound?
Its remaining binding at 1 µM is 88%.

What about the remaining binding at 1 µM (S6K1) of the same compound?
Its remaining binding at 1 µM is 50%.

And the remaining binding at 1 µM (CSNK1A1L)?
The remaining binding at 1 µM was 99%.

And the remaining binding at 1 µM (CSNK2A2)?
Its remaining binding at 1 µM is 63%.

And the remaining binding at 1 µM (DAPK2)?
The remaining binding at 1 µM was 93%.

And the remaining binding at 1 µM [2]?
The remaining binding at 1 µM was 67%.

And the remaining binding at 1 µM (NEK10)?
Its remaining binding at 1 µM is 50%.

What about the remaining binding at 1 µM (GRK2) of the same compound?
The remaining binding at 1 µM was 83%.

And the remaining binding at 1 µM (SRPK2)?
The remaining binding at 1 µM was 63%.

What about the remaining binding at 1 µM (PCTK3) of the same compound?
Its remaining binding at 1 µM is 86%.

What about the remaining binding at 1 µM (SNRK) of the same compound?
The remaining binding at 1 µM was 78%.

What about the remaining binding at 1 µM (ACVR1) of the same compound?
The remaining binding at 1 µM was 47%.

And the remaining binding at 1 µM (KIT(D816V))?
Its remaining binding at 1 µM is 58%.

And the remaining binding at 1 µM (EPHA4)?
Its remaining binding at 1 µM is 58%.

And the remaining binding at 1 µM (INSRR)?
Its remaining binding at 1 µM is 86%.

From article PMC10924921, “Mi-2β promotes immune evasion in melanoma by activating EZH2 methylation” (Nature Communications, 2024)
